How the values were obtained:
[1] = target: neuraminidase from recombinant H3N2 influenza A virus (Influenza A virus, UniProt P03482); test: biochemical; type: biochemical
[2] = target: neuraminidase from recombinant H5N1 influenza A virus (Influenza A virus, UniProt Q6DPL2); test: biochemical
neuraminidase from recombinant H5N1 influenza A virus, sequence (Q6DPL2 whole entry, looked up): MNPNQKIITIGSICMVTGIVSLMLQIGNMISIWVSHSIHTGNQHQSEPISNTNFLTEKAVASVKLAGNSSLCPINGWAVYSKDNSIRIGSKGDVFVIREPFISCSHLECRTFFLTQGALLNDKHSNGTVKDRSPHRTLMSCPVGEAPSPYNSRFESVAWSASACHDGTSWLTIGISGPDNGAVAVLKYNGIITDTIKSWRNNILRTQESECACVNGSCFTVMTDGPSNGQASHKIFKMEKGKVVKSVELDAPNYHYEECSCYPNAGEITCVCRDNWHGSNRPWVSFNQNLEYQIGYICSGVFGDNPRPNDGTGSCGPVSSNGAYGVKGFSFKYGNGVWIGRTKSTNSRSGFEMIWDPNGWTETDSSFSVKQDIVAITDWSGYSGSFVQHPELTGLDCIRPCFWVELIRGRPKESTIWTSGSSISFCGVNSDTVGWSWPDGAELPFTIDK

neuraminidase from recombinant H3N2 influenza A virus, sequence (P03482 whole entry): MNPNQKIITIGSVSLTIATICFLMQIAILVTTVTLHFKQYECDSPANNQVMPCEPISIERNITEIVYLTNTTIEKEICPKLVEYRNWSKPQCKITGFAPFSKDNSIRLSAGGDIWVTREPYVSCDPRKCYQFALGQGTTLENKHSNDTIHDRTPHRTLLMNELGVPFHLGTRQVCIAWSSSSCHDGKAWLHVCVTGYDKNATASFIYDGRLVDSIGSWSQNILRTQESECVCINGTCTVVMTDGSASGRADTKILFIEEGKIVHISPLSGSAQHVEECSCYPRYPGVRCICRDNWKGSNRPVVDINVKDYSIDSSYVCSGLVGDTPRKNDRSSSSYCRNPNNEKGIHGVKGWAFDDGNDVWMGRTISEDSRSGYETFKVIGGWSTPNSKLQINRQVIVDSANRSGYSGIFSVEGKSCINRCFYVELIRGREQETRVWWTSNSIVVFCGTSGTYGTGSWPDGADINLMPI

SMILES: C/C=C/C1=CC2=C(CO1)C(=O)[C@](C)(O)[C@H](OC(=O)c1c(C)cc(O)cc1O)C2 [Compound 3, comazaphilone D]
- Inhibition type [1]: Non-competitive (35.3)
- Ki [1]: 35.3 µM
- IC50 ([1]; IC50 H3N2 neuraminidase): 30.9 ± 0.1 µM
- IC50 [2]: 35.7 ± 0.2 µM

Reference: PMC6691809 (Mycobiology, 2019)
